Laboratory results as given in patent US20200010562A1, “NEW THERAPEUTIC STRATEGIES AGAINST BLOOD CANCER” (priority 2015, published 2020).
Where two headings read alike, the source gives them in different places.

Columns and labels:
[1] = test system: primary embryonic mouse fibroblast (MEF); conditions: 24 h, 10 μM
L1210 = test: Erythrosin B exclusion survival/mortality of L1210 in control or FMD medium; format: cell-based, murine
[2] = In vivo CLL model, spleen weight; set-up: species or system Rag2−/−γc−/− female mice; conditions: fasted (STS) groups
Procedure: (§1) Eight-week-old Rag2−/−γ c−/− female mice were challenged intravenously (iv) via lateral tail veins with 10×10^6 MEC1 cells in 0.1 ml of saline through a 27-gauge needle, as previously described by Bertilaccio et al., (2010). Before injection, cells in log phase of growth were harvested and suspended in phosphate-buffered saline (PBS) at 100×10^6 cells/ml, and 100 μl (10×10^6 cells per mouse) was injected iv. All mice were gently warmed before intravenous injections to dilate the veins. Body weights were determined daily, and tumor progression was determined by blood smear. Animals were monitored every day for weight and general health conditions and were sacrificed when they experienced clinical signs of illness following the criteria approved and described in the protocol #742/2015—PR (see Animal Ethics Statement).
Animals were fasted for a total of 48 hours by complete deprivation of food but with free access to water. Mice were individually housed in a clean new cage to reduce cannibalism, coprophagy, and residual chow. Body weight was measured daily and immediately before and after fasting. […]
At the end of experimental procedure, peripheral blood (PB), peritoneal exudates and organs [spleen, kidneys, liver, lungs, and femoral bone marrow (BM)] were collected and analyzed either for FACS or morphological analyses. For all experimental group, spleen weight was measured (FIG. 21).

MEC1 cells [3] = test: In vivo CLL model, FACS for human CD19/CD20/CD45 leukemic cells in tissues; set-up: species or system Rag2−/−γc−/− female mice; conditions: in combination with STS; majority of analyzed tissues
Procedure: as §1
(§2) Animals were fasted for a total of 48 hours by complete deprivation of food but with free access to water. […] Body weight was measured daily and immediately before and after fasting. […]
For FACS analysis, after blocking fragment crystallizable receptors for 10 minutes at room temperature to avoid nonspecific binding of antibodies, cells from PB, BM, peritoneal exudates, and spleen were stained with PE-Vio770 anti-human CD19 antibody. FITC anti-human CD20 and TRITC anti-human CD45 anti-human, respectively (MACS Miltenyi Biotec) and analyzed with BD FACSCANTO II flow cytometer. […]

MEC2 = test: Survival/mortality of MEC2 in control or FMD medium; format: cell-based, human; conditions: for effect of FMD medium on growth inhibitory effect of the drug: FMD vs control medium
CD20 = conditions: rituximab-resistant cell lines in vitro; cited from earlier work
MEC1 = test: Survival/mortality of MEC1 in control or FMD medium; format: cell-based, human; conditions: for effect of FMD medium on growth inhibitory effect of the drug: FMD vs control medium
MEC1 cells [4] = test: In vivo CLL model, histopathological analysis of organs (H&E); set-up: species or system Rag2−/−γc−/− female mice; conditions: majority of organs
Procedure: as §1, §2
For morphological analysis, organs (BM, spleen, kidney, liver and lung) were formalin-fixed, paraffin-embedded, cut at 3-μm-thick sections, and stained with hematoxylin and eosin. Histologic sections were evaluated in a double-blinded fashion. […] For these mice groups, the morphology of analyzed organ was similar to the control ([…]).

[5] = test system: relapsed and refractory indolent lymphomas; conditions: single agent; cited from earlier work
[6] = alone or in combination with low glucose/FCS (FMD)

C/C=C1\NC(=O)[C@H]2CSSCC/C=C/[C@H](CC(=O)N[C@H](C(C)C)C(=O)N2)OC(=O)[C@H](C(C)C)NC1=O [Romidepsin]
decrease of percentage of surviving cells [1]: about 50% | mortality rate [1]: about 12% | percentage of mortality [1]: 4% | survival rate [1]: about 77%

O=C1O[C@H]([C@@H](O)CO)C(O)=C1O [Vitamin C, L-Ascorbic acid]
reducing survival rates (L1210): did not show a strong efficiency

CC(C)C[C@H](NC(=O)[C@H](Cc1ccccc1)NC(=O)c1cnccn1)B(O)O [Bortezomib]
spleen weight [2]: significantly lower | expression of human CD19, human CD20 and human CD45 (MEC1 cells [3]): significantly decreases | killing tumor cells (L1210): very effective in killing tumor cells | effect of FMD medium on growth inhibitory effect of the drug (MEC2): remarkably improved | CD20 expression (CD20): increases CD20 expression | effect of FMD medium on growth inhibitory effect of the drug (MEC1): remarkably improved | metastases and cluster of infiltration (MEC1 cells [4]; ad lib): lesser expanse | metastases and cluster of infiltration (MEC1 cells [4]; with STS): lesser expanse

O=C(/C=C/c1cccc(S(=O)(=O)Nc2ccccc2)c1)NO [Belinostat]
killing tumor cells (L1210): very effective in killing tumor cells | effect of FMD medium on growth inhibitory effect of the drug (MEC2): remarkably improved | effect of FMD medium on growth inhibitory effect of the drug (MEC1): remarkably improved

C[C@]12C=CC(=O)C=C1CC[C@@H]1[C@@H]2C(=O)C[C@@]2(C)[C@H]1CC[C@]2(O)C(=O)CO [Prednisone]
reducing survival rates (L1210; [6]): did not show a strong efficiency | effect on L1210 growth (L1210; independently of the application of the FMD): no or limited effect

COc1cc(/C=C/C(=O)CC(=O)/C=C/c2ccc(O)c(OC)c2)ccc1O [Curcumin]
reducing survival rates (L1210; [6]): did not show a strong efficiency

Rituximab
effect on cell survival and death (MEC2): very effective | effect on cell survival and death (MEC1): very effective | overall response rate [5]: 50%

(−)Epigallocatechin Gallate [EGCG]
reducing survival rates (L1210): did not show a strong efficiency

O=P1(N(CCCl)CCCl)NCCCO1 (stereo not drawn) [Cyclophosphamide]
killing tumor cells (L1210): very effective in killing tumor cells
